Patent US9636418B2 (priority 2013, dated 2017)
Where “and” joins values, the source holds several entries; their conditions need not be identical. Equal values may be shown once. Read-outs that look alike come from different tables or passages of the source.

What was measured:
hNav1.4 [1] = target: T1, hNav1.4 (Homo sapiens, UniProt P35499); assay: cell-based
hNav1.4 [2] = target: T1, hNav1.4; assay: cell-based; details: ratio of IonWorks Quattro IC50 values

T1 sequence (P35499 whole entry): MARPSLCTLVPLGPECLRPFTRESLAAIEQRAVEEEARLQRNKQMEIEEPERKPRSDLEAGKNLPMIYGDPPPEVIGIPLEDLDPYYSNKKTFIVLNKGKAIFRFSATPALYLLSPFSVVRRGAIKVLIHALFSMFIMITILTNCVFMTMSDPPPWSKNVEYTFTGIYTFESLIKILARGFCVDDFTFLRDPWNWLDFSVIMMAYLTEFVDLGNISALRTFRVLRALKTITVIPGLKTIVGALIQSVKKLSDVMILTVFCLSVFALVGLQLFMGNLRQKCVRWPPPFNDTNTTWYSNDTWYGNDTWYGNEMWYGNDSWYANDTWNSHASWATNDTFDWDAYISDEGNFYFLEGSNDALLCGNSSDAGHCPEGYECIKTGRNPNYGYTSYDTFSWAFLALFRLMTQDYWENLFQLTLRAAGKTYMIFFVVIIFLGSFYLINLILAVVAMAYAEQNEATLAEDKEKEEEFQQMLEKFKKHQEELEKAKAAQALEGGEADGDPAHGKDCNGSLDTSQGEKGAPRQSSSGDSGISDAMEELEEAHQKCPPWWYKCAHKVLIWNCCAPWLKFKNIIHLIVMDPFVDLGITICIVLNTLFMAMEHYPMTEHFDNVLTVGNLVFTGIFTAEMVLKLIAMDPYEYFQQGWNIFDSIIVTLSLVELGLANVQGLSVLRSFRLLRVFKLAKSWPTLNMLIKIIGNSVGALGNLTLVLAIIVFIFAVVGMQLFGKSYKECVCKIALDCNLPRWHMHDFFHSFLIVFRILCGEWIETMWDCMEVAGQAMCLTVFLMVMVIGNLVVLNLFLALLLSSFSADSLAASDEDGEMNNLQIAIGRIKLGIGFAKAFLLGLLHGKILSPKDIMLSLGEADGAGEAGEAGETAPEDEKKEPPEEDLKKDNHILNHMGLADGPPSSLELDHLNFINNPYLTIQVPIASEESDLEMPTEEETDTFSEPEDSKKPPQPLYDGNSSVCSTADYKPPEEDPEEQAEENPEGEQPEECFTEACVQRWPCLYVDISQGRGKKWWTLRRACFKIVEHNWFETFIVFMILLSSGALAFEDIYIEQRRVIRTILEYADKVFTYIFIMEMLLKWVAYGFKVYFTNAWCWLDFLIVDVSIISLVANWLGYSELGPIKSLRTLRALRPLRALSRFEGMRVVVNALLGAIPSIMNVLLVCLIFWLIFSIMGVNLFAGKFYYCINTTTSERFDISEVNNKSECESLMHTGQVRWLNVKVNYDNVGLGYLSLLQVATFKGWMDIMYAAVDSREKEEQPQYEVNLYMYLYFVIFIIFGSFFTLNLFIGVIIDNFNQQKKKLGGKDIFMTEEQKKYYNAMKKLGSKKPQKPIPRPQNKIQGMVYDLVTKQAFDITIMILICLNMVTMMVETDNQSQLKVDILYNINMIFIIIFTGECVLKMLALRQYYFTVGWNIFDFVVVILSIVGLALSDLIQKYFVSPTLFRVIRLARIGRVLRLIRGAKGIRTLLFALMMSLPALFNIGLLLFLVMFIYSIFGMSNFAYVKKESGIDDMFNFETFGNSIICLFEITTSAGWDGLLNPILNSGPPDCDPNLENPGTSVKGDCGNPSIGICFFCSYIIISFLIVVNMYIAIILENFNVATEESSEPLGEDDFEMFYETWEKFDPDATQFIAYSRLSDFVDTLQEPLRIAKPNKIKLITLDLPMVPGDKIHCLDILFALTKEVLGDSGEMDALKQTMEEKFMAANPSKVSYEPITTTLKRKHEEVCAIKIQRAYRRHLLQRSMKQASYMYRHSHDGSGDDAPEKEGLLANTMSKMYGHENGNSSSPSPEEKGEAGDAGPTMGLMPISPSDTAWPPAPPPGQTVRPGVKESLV

Question: CC[C@H](C)[C@H](NC(=O)[C@@H](NC(=O)[C@H](CCCCN)NC(=O)[C@H](CCCNC(=N)N)NC(=O)[C@@H]1CSSC[C@@H]2NC(=O)[C@H](C)NC(=O)[C@H](CCCNC(=N)N)NC(=O)[C@H](CCCCN)NC(=O)[C@H](CO)NC(=O)[C@H](CC(=O)O)NC(=O)[C@@H]3CSSC[C@H](NC(=O)[C@H](CCC(=O)O)NC(=O)[C@H](CC(C)C)NC(=O)CNC(=O)[C@H](CCC(=O)O)NC(=O)[C@H](CSSC[C@H](NC(=O)[C@@H](N)Cc4ccc(O)cc4)C(=O)N[C@@H](CCC(N)=O)C(=O)N[C@@H](CCCCN)C(=O)N[C@@H](Cc4c[nH]c5ccccc45)C(=O)N[C@@H](CCSC)C(=O)N[C@@H](Cc4c[nH]c5ccccc45)C(=O)N[C@@H]([C@@H](C)O)C(=O)N3)NC2=O)C(=O)N[C@@H](CCCCN)C(=O)N[C@@H](CC(C)C)C(=O)N[C@@H](Cc2c[nH]c3ccccc23)C(=O)N1)[C@@H](C)CC)C(N)=O [SEQ ID NO: 63, [Glu20]JzTx-V(1-29)] was tested. Which IC50 (hNav1.4 [1]; read-out: IC50 against hNav1.4 in the PX assay format) did it give?
Answer: 1.25 µM

Question: For CC[C@@H]1NC(=O)[C@H](CC(C)C)NC(=O)CNC(=O)[C@H](CCC(=O)O)NC(=O)[C@@H]2CSSC[C@H](NC(=O)[C@@H](N)Cc3ccc(O)cc3)C(=O)N[C@@H](CCC(N)=O)C(=O)N[C@@H](CCCCN)C(=O)N[C@@H](Cc3c[nH]c4ccccc34)C(=O)N[C@@H](CCSC)C(=O)N[C@@H](Cc3c[nH]c4ccccc34)C(=O)N[C@@H]([C@@H](C)O)C(=O)N[C@H]3CSSC[C@H](NC1=O)C(=O)N[C@@H](CCCCN)C(=O)N[C@@H](CC(C)C)C(=O)N[C@@H](Cc1c[nH]c4ccccc14)C(=O)N[C@H](C(=O)N[C@@H](CCCNC(=N)N)C(=O)N[C@@H](CCCCN)C(=O)N[C@H](C(=O)N[C@H](C(N)=O)[C@@H](C)CC)[C@@H](C)CC)CSSC[C@H](NC(=O)[C@H](C)NC(=O)[C@H](CCCNC(=N)N)NC(=O)[C@H](CCCCN)NC(=O)[C@H](CO)NC(=O)[C@H](CC(=O)O)NC3=O)C(=O)N2 [compound 117], which Nav1.4/Nav1.7 (hNav1.4 [2]) is on record?
Answer: 19

Question: How did the Nav1.4/Nav1.7 (hNav1.4 [2]) turn out when CC[C@H](NC(=O)[C@H](CCCCN)NC(=O)[C@H](CCCNC(=N)N)NC(=O)[C@@H]1CSSC[C@@H]2NC(=O)[C@H](C)NC(=O)[C@H](CCCNC(=N)N)NC(=O)[C@H](CCCCN)NC(=O)[C@H](CO)NC(=O)[C@H](CC(=O)O)NC(=O)[C@@H]3CSSC[C@H](NC(=O)[C@H](CCC(=O)O)NC(=O)[C@H](CC(C)C)NC(=O)CNC(=O)[C@H](CCC(=O)O)NC(=O)[C@H](CSSC[C@H](NC(=O)[C@@H](N)Cc4ccc(O)cc4)C(=O)N[C@@H](CCC(N)=O)C(=O)N[C@@H](CCCCN)C(=O)N[C@@H](Cc4c[nH]c5ccccc45)C(=O)N[C@@H](CCSC)C(=O)N[C@@H](Cc4c[nH]c5ccccc45)C(=O)N[C@@H]([C@@H](C)O)C(=O)N3)NC2=O)C(=O)N[C@@H](CCCCN)C(=O)N[C@@H](CC(C)C)C(=O)N[C@@H](Cc2c[nH]c3ccccc23)C(=O)N1)C(=O)N[C@H](C(N)=O)[C@@H](C)CC [compound 130] was run?
Answer: 29 and 24

Question: How did the Nav1.4/Nav1.7 (hNav1.4 [2]) turn out when CCCC[C@@H]1NC(=O)[C@H](Cc2c[nH]c3ccccc23)NC(=O)[C@H](CCCCN)NC(=O)[C@H](CCC(N)=O)NC(=O)[C@@H](NC(=O)[C@@H](N)Cc2ccc(O)cc2)CSSC[C@@H]2NC(=O)[C@@H]3CSSC[C@@H](C(=O)N[C@@H](CCCNC(=N)N)C(=O)N[C@@H](CCCCN)C(=O)N[C@H](C(=O)N[C@@H](Cc4cn(CCCOCCOCCOCCOCCOCCOCCOCCOCCOCCOCCN)nn4)C(N)=O)[C@@H](C)CC)NC(=O)[C@H](Cc4c[nH]c5ccccc45)NC(=O)[C@H](CC(C)C)NC(=O)[C@H](CCCCN)NC(=O)[C@H](CSSC[C@H](NC(=O)[C@H]([C@@H](C)O)NC(=O)[C@H](Cc4c[nH]c5ccccc45)NC1=O)C(=O)N[C@@H](CC(=O)O)C(=O)N[C@@H](CO)C(=O)N[C@@H](CCCCN)C(=O)N[C@@H](CCCNC(=N)N)C(=O)N[C@@H](C)C(=O)N3)NC(=O)[C@H](CCCNC(=N)N)NC(=O)[C@H](CC(C)C)NC(=O)CNC(=O)[C@H](CCC(=O)O)NC2=O [compound 270] was run?
Answer: 2

Question: Which Nav1.4/Nav1.7 (hNav1.4 [1]; ratio of PX tonic IC50 values) does the source give for C#CC[C@@H]1NC(=O)[C@@H]2CSSC[C@H](NC(=O)[C@H](Cc3ccc(O)cc3)NC(=O)[C@@H](N)CC#N)C(=O)N[C@@H](CCC(N)=O)C(=O)N[C@@H](CCCCN)C(=O)N[C@@H](Cc3c[nH]c4ccccc34)C(=O)N[C@@H](CCCC)C(=O)N[C@@H](Cc3c[nH]c4ccccc34)C(=O)N[C@@H]([C@@H](C)O)C(=O)N[C@H]3CSSC[C@H](NC(=O)[C@H](CCC(=O)O)NC(=O)[C@H](CC(C)C)NC(=O)CNC1=O)C(=O)N[C@@H](CCCCN)C(=O)N[C@@H](CC(C)C)C(=O)N[C@@H](Cc1c[nH]c4ccccc14)C(=O)N[C@H](C(=O)N[C@@H](CCCNC(=N)N)C(=O)N[C@@H](CCCCN)C(=O)N[C@H](C(=O)N[C@H](C(N)=O)[C@@H](C)CC)[C@@H](C)CC)CSSC[C@H](NC(=O)[C@H](C)NC(=O)[C@H](CCCNC(=N)N)NC(=O)[C@H](CCCCN)NC(=O)[C@H](CO)NC(=O)[C@H](CC(=O)O)NC3=O)C(=O)N2 [compound 396] here?
Answer: 98

Question: What does the source list for C#CC[C@H](N)C(=O)NCCCC[C@@H]1NC(=O)[C@H](CCCNC(=N)N)NC(=O)[C@H](CCCCN)NC(=O)[C@H](CO)NC(=O)[C@H](CC(=O)O)NC(=O)[C@@H]2CSSC[C@@H]3NC(=O)[C@H](CCCNC(=N)N)NC(=O)[C@H](CC(C)C)NC(=O)CNC(=O)[C@H](CCC(=O)O)NC(=O)[C@H](CSSC[C@H](NC(=O)[C@H](Cc4ccc(O)cc4)NC(=O)[C@@H](N)CCC)C(=O)N[C@@H](CCC(N)=O)C(=O)N[C@@H](CCCCN)C(=O)N[C@@H](Cc4c[nH]c5ccccc45)C(=O)N[C@@H](CCCC)C(=O)N[C@@H](Cc4c[nH]c5ccccc45)C(=O)N[C@@H]([C@@H](C)O)C(=O)N2)NC(=O)[C@H](CSSC[C@@H](C(=O)N[C@@H](CCCNC(=N)N)C(=O)N[C@@H](CCCCN)C(=O)N[C@H](C(=O)N[C@H](C(N)=O)[C@@H](C)CC)[C@@H](C)CC)NC(=O)[C@H](Cc2c[nH]c4ccccc24)NC(=O)[C@H](CC(C)C)NC(=O)[C@H](CCCCN)NC3=O)NC1=O [compound 431]?
Answer: IC50 (hNav1.4 [1]; PatchXpress, tonic block, read-out: PX hNav1.4 Tonic IC50): 0.0205 µM; Nav1.4/Nav1.7 (hNav1.4 [1]; ratio of PX tonic IC50 values): 13

Question: How did the Nav1.4/Nav1.7 (hNav1.4 [1]; ratio of PX IC50 values) turn out when CCC[C@H](N)C(=O)N[C@@H](Cc1ccc(O)cc1)C(=O)N[C@H]1CSSC[C@@H]2NC(=O)[C@@H]3CSSC[C@@H](C(=O)N[C@@H](CCCNC(=N)N)C(=O)N[C@@H](CCCCN)C(=O)N[C@H](C(=O)N[C@H](C(N)=O)[C@@H](C)CC)[C@@H](C)CC)NC(=O)[C@H](Cc4c[nH]c5ccccc45)NC(=O)[C@H](CC(C)C)NC(=O)[C@H](CCCCN)NC(=O)[C@H](CSSC[C@H](NC(=O)[C@H]([C@@H](C)O)NC(=O)[C@H](Cc4c[nH]c5ccccc45)NC(=O)[C@H](CC(C)C)NC(=O)[C@H](Cc4c[nH]c5ccccc45)NC(=O)[C@H](CCCCN)NC(=O)[C@H](CCC(N)=O)NC1=O)C(=O)N[C@@H](CC(=O)O)C(=O)N[C@@H](CO)C(=O)N[C@@H](CCCCN)C(=O)N[C@@H](CCCNC(=N)N)C(=O)N[C@@H](CCCCNC(=O)[C@@H](N)Cc1cn(CCOCCOCCOCCOCCOCCOCCOCCOCCOCCOCCN)nn1)C(=O)N3)NC(=O)[C@H](CCCNC(=N)N)NC(=O)[C@H](CC(C)C)NC(=O)CNC(=O)[C@H](CCC(=O)O)NC2=O [compound 446] was run?
Answer: 11
